This passage reports IC50 and inhibition results from US11186564B2, “Dual NAV1.2/5HT2a inhibitors for treating CNS disorders” (Sunovion Pharmaceuticals Inc., priority 2016, dated 2021).

Test [1] concerns the target T1, recombinant human serotonin receptor 5-HT2A (Homo sapiens, UniProt P28223).
T1 construct: expressed in transfected cells; method B: loaded with Ca2+ dye
The experiment in a line: 5-HT2A antagonist Ca2+ assay in CHO-K1 cells (method A aequorin luminescence / method B FLIPR fluorescence). In kind it is cell-based. The settings on record: antagonist mode vs EC80 of reference agonist, method A or B, read-out: 5HT2A IC50. In short, it runs like this:
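IC50 was obtained by nonlinear regression of percent inhibition of the EC80 agonist Ca2+ response in CHO-K1 cells stably expressing human 5-HT2A. The readout was aequorin luminescence with agonist injected 15 min after compound (A), or Ca2+-dye fluorescence on FLIPR with serotonin as agonist (B).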

The target in test [2] is human sodium channel NaV1.2 (Homo sapiens, UniProt Q99250). The experiment in a line: NaV1.2 inhibition, automated patch-clamp (Q-Patch HTX), slow inactivated state (state C). In kind it is cell-based. As to conditions: hNaV1.2 CHO cells, slow inactivated state; for inhibition at 1 µM: 1 μM compound, read-out: NaV1.2 (% inh), 1 μM; for IC50: read-out: NaV1.2 IC50; for inhibition at 10 µM: 10 μM compound, read-out: NaV1.2 (% inh), 10 μM. In short, it runs like this:
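IC50 comes from a least-squares fit of percent inhibition, relative to vehicle, of current in the slow-inactivated state. That state is reached by a 10 s prepulse to −50 mV, then 15 ms at −90 mV, then a 5 ms test pulse to 0 mV. Human NaV1.2 in stable CHO K-1 cells, held at −100 mV, automated patch clamp.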

Sequence of human sodium channel NaV1.2 (Q99250 whole entry): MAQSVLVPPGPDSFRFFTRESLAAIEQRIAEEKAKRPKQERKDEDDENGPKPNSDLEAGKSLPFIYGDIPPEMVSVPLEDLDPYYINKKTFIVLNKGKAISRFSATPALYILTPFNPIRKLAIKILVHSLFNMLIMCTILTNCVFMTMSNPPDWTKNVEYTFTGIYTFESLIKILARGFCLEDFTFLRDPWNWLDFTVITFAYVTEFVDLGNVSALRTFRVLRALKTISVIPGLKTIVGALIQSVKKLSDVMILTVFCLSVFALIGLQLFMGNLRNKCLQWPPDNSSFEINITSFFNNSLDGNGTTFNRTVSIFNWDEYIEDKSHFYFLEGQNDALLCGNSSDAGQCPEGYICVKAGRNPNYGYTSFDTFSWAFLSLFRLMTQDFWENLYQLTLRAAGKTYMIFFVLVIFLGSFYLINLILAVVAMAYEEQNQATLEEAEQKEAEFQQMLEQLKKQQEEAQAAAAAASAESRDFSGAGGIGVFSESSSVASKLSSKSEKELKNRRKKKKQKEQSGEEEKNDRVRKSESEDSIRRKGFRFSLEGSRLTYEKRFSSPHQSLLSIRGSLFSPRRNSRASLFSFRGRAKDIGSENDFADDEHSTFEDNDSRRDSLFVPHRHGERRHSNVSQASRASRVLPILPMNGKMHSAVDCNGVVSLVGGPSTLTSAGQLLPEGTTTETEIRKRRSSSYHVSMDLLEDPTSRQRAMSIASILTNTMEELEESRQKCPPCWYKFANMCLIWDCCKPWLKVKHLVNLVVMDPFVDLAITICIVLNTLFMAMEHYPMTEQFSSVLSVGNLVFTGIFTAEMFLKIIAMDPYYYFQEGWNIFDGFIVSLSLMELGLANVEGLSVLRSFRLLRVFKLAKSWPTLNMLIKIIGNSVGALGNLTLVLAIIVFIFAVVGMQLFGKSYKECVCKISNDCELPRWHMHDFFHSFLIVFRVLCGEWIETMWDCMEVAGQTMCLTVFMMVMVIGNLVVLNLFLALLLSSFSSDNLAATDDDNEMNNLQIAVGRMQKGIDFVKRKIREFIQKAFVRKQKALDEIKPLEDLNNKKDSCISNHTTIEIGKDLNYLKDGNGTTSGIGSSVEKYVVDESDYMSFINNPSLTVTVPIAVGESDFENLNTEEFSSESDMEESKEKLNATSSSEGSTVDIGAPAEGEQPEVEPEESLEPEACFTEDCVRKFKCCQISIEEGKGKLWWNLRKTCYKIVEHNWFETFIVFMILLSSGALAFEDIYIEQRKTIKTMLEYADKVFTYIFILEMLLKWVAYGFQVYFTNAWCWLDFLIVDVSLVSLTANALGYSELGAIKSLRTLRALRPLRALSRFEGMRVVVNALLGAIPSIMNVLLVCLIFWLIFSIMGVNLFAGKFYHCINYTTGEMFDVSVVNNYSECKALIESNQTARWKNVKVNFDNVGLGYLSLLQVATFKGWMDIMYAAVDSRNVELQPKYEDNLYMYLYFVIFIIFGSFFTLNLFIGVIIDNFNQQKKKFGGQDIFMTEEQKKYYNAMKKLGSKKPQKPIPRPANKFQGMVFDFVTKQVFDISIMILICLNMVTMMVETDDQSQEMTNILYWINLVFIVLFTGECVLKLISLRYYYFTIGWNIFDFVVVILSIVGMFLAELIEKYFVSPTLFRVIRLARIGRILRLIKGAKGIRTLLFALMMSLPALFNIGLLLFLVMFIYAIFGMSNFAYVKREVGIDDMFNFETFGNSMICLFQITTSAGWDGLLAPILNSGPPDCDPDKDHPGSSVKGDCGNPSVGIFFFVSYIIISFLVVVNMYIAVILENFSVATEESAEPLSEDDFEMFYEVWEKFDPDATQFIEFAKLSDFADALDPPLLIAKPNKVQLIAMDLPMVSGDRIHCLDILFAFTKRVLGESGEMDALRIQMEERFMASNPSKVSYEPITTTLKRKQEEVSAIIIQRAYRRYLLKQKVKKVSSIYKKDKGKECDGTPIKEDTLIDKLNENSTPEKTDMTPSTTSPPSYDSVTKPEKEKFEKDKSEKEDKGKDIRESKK
T1 sequence (P28223 whole entry): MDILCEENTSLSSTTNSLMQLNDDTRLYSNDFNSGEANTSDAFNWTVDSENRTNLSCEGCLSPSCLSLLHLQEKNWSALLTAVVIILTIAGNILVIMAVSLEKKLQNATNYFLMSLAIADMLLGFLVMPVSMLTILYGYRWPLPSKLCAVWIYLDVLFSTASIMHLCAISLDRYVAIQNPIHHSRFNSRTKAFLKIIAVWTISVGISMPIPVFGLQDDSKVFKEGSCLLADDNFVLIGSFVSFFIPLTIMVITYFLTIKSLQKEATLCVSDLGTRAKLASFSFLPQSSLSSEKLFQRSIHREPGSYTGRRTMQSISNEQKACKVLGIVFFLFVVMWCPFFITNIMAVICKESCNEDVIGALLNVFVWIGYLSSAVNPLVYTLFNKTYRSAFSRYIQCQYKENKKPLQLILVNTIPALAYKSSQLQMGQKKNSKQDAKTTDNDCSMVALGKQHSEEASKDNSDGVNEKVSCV

For the molecule `O=C1CCC(c2ccc(F)cc2)=NN1CN1CCC(Oc2ccc(F)cc2)CC1` [Example 167, 2-((4-(4-fluorophenoxy)piperidin-1-yl)methyl)-6-(4-fluorophenyl)-4,5-dihydropyridazin-3(2H)-one], the IC50 – broadly, the concentration at which inhibition is half-maximal – in test [1] was determined as 90 nM. The inhibition at 1 µM in test [2] is 13%.

With `O=C1CCC(c2ccc(F)cc2)=NN1CN1CCN(c2cccc(Cl)c2)CC1` [Example 62, 2-((4-(3-chlorophenyl)piperazin-1-yl)methyl)-6-(4-fluorophenyl)-4,5-dihydropyridazin-3(2H)-one], the IC50 was 50 nM in test [1] and 5270 nM in test [2].

Take `c1ccc([C@@H]2COC3(CCN(C[C@H]4CCc5ccccc54)CC3)C2)cc1` (single isomer, unassigned) [Compound 379]: the IC50 in test [1] stood at 40 nM; in test [2], 290 nM.

For the molecule `c1ccc2c(c1)CCC1(CCN(CC3Cc4ccncc4C3)CC1)O2` (centres unmarked) [Example 412, 1′-((6,7-dihydro-5H-cyclopenta[c]pyridin-6-yl)methyl)spiro[chromane-2,4′-piperidine]], in test [1], the IC50 was 1860 nM. Further, in test [2], the inhibition at 1 µM came to 18%.

For the molecule `c1ccc(N2[C@@H]3CC[C@H]2CN(CC2CCc4ccccc42)C3)cc1` (stereo partly drawn) [Example 295, (1R,5S)-3-((2,3-dihydro-1H-inden-1-yl)methyl)-8-phenyl-3,8-diazabicyclo[3.2.1]octane], the IC50 in test [1] is over 16700 nM. The inhibition at 1 µM in test [2] stood at 2%.

On to `c1ccc2c(c1)CCC1(CCN(CC3CCc4ccccc43)CC1)O2` (centres unmarked) [Example 401, 1′-((2,3-dihydro-1H-inden-1-yl)methyl)spiro[chromane-2,4′-piperidine]], for which the IC50 is 50 nM in test [1] and 110 nM in test [2].

`Fc1ccc(OC2CCN(CC3COCc4ccccc43)CC2)cc1` (centres unmarked) [Example 160, 4-(4-fluorophenoxy)-1-(isochroman-4-ylmethyl)piperidine]: the IC50 in test [1] was determined as 130 nM. In addition, the inhibition at 1 µM in test [2] amounted to 32%.

On to `O=C1c2ccccc2CCN1CCN1CCC(Oc2cccnc2)CC1` [Example 192, 2-(2-(4-(pyridin-3-yloxy)piperidin-1-yl)ethyl)-3,4-dihydroisoquinolin-1(2H)-one], for which the IC50 in test [1] stood at 2840 nM. Further, the inhibition at 10 µM in test [2] amounted to 15%.

In the case of `O[C@@H](COC1CCCCC1)CN1C[C@@H]2C[C@H]1CN2Cc1ccccc1` [Example 308, (R)-1-((1S,4S)-5-benzyl-2,5-diazabicyclo[2.2.1]heptan-2-yl)-3-(cyclohexyloxy)propan-2-ol], the IC50 in test [1] stood at 4020 nM. The inhibition at 10 µM in test [2] turned out to be 27%.

Turning to `COc1cccc(OC2CCN(CCN3CCCc4ccccc4C3=O)CC2)c1` [Example 205, 2-(2-(4-(3-methoxyphenoxy)piperidin-1-yl)ethyl)-2,3,4,5-tetrahydro-1H-benzo[c]azepin-1-one], in test [1], the concentration for half-maximal inhibition (IC50) worked out at 450 nM. The inhibition at 10 µM in test [2] came out at 76%.

Consider `Cc1cccc(N2CCN(CC(O)COC3COc4ccccc43)CC2)c1C` (centres unmarked) [Example 80, 1-((2,3-dihydrobenzofuran-3-yl)oxy)-3-(4-(2,3-dimethylphenyl)piperazin-1-yl)propan-2-ol], for which the figures for the IC50 in test [1] and in test [2] were 60 nM and 170 nM, respectively.

In the case of `Fc1ccc(OC2CCN(CC3CCc4ccccc43)CC2)cc1` (centres unmarked) [Example 112, 1-((2,3-dihydro-1H-inden-1-yl)methyl)-4-(4-fluorophenoxy)piperidine], the IC50 is 4 nM in test [1] and 1440 nM in test [2].

With `COc1ccc2c(c1)C(CN1CCC(Oc3cccc(C)n3)CC1)CC2` (centres unmarked) [Example 124, 2-((1-((6-methoxy-2,3-dihydro-1H-inden-1-yl)methyl)piperidin-4-yl)oxy)-6-methylpyridine], the IC50 in test [1] stood at 120 nM. In addition, the inhibition at 1 µM in test [2] was 34%.

For the molecule `c1ccc([C@H]2COC3(CCN(C[C@@H]4CCc5ccccc54)CC3)C2)cc1` (single isomer, unassigned) [Compound 378], the IC50 amounted to 60 nM in test [1] and 770 nM in test [2].

As for `O=C1c2cccnc2CCN1CCN1CCC(Oc2ccc(F)cc2)CC1` [Example 207, 6-(2-(4-(4-fluorophenoxy)piperidin-1-yl)ethyl)-7,8-dihydro-1,6-naphthyridin-5(6H)-one], the IC50 in test [1] worked out at 30 nM. The inhibition at 10 µM in test [2] came to 38%.

As to `Fc1ccc(O[C@H]2CCCN(CC3COCc4ccccc43)C2)cc1` (stereo partly drawn) [Example 261, (3S)-3-(4-fluorophenoxy)-1-(isochroman-4-ylmethyl)piperidine], the IC50 in test [1] worked out at 350 nM. Besides, the inhibition at 1 µM in test [2] is 22%.

On to `O[C@H](COC1CCCCC1)CN1CC2(CC(c3ccccc3)CO2)C1` (stereo partly drawn) [Example 360, (2S)-1-(cyclohexyloxy)-3-(7-phenyl-5-oxa-2-azaspiro[3.4]octan-2-yl)propan-2-ol], for which the IC50 in test [1] is 130 nM. Besides, in test [2], the inhibition at 1 µM was determined as 4%.

Turning to `Cc1cccc(N2CCN(CC(O)COC3(C)COc4ccccc43)CC2)c1C` (centres unmarked) [Example 81, 1-(4-(2,3-dimethylphenyl)piperazin-1-yl)-3-((3-methyl-2,3-dihydrobenzofuran-3-yl)oxy)propan-2-ol], the values for the IC50 in test [1] and in test [2] were 30 nM and 160 nM, respectively.

Take `OC(COC1CCCCC1)CN1CCC2(CCN(c3ccccc3)C2)C1` (centres unmarked) [Example 344, 1-(cyclohexyloxy)-3-(7-phenyl-2,7-diazaspiro[4.4]nonan-2-yl)propan-2-ol]: the IC50 in test [1] was found to be 110 nM; in test [2] it was 430 nM.

Consider `OC1(CN2CCC(Oc3ccc(F)cc3)CC2)COCc2ccccc21` (centres unmarked) [Example 159, 4-((4-(4-fluorophenoxy)piperidin-1-yl)methyl)isochroman-4-ol], for which the IC50 in test [1] came to 20 nM. Also, the inhibition at 10 µM in test [2] turned out to be 77%.

On to `Cc1cccc(N2CCN(CC3(O)COCc4ccccc43)CC2)c1C` (centres unmarked) [Example 56, 4-((4-(2,3-dimethylphenyl)piperazin-1-yl)methyl)isochroman-4-ol], for which the results for the IC50 in test [1] and in test [2] were 130 nM and 430 nM, respectively.

For the molecule `CN(C)Cc1ccc2c(c1)C(=O)N(CCN1CCC(Oc3ccc(F)cc3)CC1)CCC2` [Example 211, 8-((dimethylamino)methyl)-2-(2-(4-(4-fluorophenoxy)piperidin-1-yl)ethyl)-2,3,4,5-tetrahydro-1H-benzo[c]azepin-1-one], in test [1], the IC50 worked out at 270 nM. Besides, in test [2], the inhibition at 10 µM turned out to be 50%.

For `Fc1ccc(OC2COCCN(CC3CCc4ccccc43)C2)cc1` (centres unmarked) [Example 276, 4-((2,3-dihydro-1H-inden-1-yl)methyl)-6-(4-fluorophenoxy)-1,4-oxazepane], the IC50 in test [1] came to 400 nM; in test [2] it was 440 nM.

Consider `COc1ccc2c(c1)C(CN1CCC(Oc3ccccc3)CC1)CC2` (centres unmarked) [Example 107, 1-((6-methoxy-2,3-dihydro-1H-inden-1-yl)methyl)-4-phenoxypiperidine], for which the IC50 in test [1] was 4 nM; in test [2], 1990 nM.

Regarding `O=C1Nc2ccccc2CC12CCN(C[C@@H](O)COc1ccccc1)CC2` [Example 446, (R)-1-(2-hydroxy-3-phenoxypropyl)-1′,4′-dihydro-2′H-spiro[piperidine-4,3′-quinolin]-2′-one], in test [1], the IC50 stood at 610 nM. The inhibition at 1 µM in test [2] worked out at 11%.

Take `O=C(CN1CCC(Oc2ccccc2)CC1)c1ccccc1` [Example 216, 2-(4-phenoxypiperidin-1-yl)-1-phenylethan-1-one]: the IC50 in test [1] came out at 150 nM. Moreover, the inhibition at 1 µM in test [2] was found to be 34%.

As to `OC(COC1CCCCC1)CN1C[C@@H]2C[C@H]1CN2c1ccccc1` (stereo partly drawn) [Example 306, 1-(cyclohexyloxy)-3-((1S,4S)-5-phenyl-2,5-diazabicyclo[2.2.1]heptan-2-yl)propan-2-ol], the IC50 in test [1] worked out at 1660 nM. Besides, in test [2], the inhibition at 10 µM amounted to 60%.

As to `O[C@H](COC1CCCCC1)CN1CCC2(CCc3ccccc3O2)CC1` [Example 437, (S)-1-(cyclohexyloxy)-3-(spiro[chromane-2,4′-piperidin]-1′-yl)propan-2-ol], the IC50 in test [1] came out at 90 nM; in test [2], 3410 nM.

In the case of `c1ccc(O[C@@H]2COC3(C2)CN(C[C@@H]2CCc4ccccc42)C3)cc1` (single isomer, unassigned) [Compound 364], the IC50 in test [1] came to 80 nM; in test [2], 690 nM.

`Fc1ccc(OC2CCN(CCC3CCOc4ccccc43)CC2)cc1` (centres unmarked) [Example 183, 1-(2-(chroman-4-yl)ethyl)-4-(4-fluorophenoxy)piperidine]: the IC50 came to 40 nM in test [1] and 1590 nM in test [2].

Take `Cc1ccc(N2CCN(CC(O)COC3CCCCC3)CC2)cc1` (centres unmarked) [Example 76, 1-(cyclohexyloxy)-3-(4-(p-tolyl)piperazin-1-yl)propan-2-ol]: the IC50 stood at 20 nM in test [1] and 240 nM in test [2].

Regarding `COc1ccc2c(c1)C(CN1CCC3(CC1)OCc1ccccc13)CC2` (centres unmarked) [Example 390, 1′-((6-methoxy-2,3-dihydro-1H-inden-1-yl)methyl)-3H-spiro[isobenzofuran-1,4′-piperidine]], the IC50 turned out to be 750 nM in test [1] and 590 nM in test [2].

With `O[C@H](COc1ccccc1)CN1CCC2(CCc3ccccc3O2)CC1` [Example 440, (S)-1-phenoxy-3-(spiro[chromane-2,4′-piperidin]-1′-yl)propan-2-ol], the IC50 in test [1] is 80 nM. Also, in test [2], the inhibition at 1 µM is -8%.

Regarding `Nc1ccc2c(c1)C(CN1CCC(Oc3ccc(F)cc3)CC1)CC2` (centres unmarked) [Example 115, 3-((4-(4-fluorophenoxy)piperidin-1-yl)methyl)-2,3-dihydro-1H-inden-5-amine], the IC50 in test [1] was under 1 nM; in test [2] it was 2580 nM.
